Reference: patent US20080269116A1 (priority 2004, published 2008)
Where no end group is shown, it is not given here. The star is where a group is joined. Octanoyl = CCCCCCCC(=O)*

Key:
[1] = molecular target: T1, GHS-R (Homo sapiens, UniProt Q92847); experiment: Intracellular calcium mobilization in cultured human T cells (Fura-2); assay type: cell-based
T1 construct: endogenous in cells; host or cells: cultured human T cells
Protocol: Intracellular calcium mobilization. […] Cells were incubated in PBS containing 5 μM Fura-2 AM for 30 minutes at room temperature. The cells were subsequently washed and then resuspended at 1×10^6/mL in PBS. A total of 2 mL of the cell suspension was placed in a continuously stirring cuvette at room temperature in an LS50B spectrophotometer (Perkin-Elmer, Wellesley, Mass.). Fluorescence was monitored at λex1=340 nm, λex2=380 nm, and λem=510 nm. The data are presented as the relative ratio of fluorescence excited at 340 and 380 nm.

[2] = test system: Human PBMCs; experiment: Cytokine production by PHA-stimulated human PBMCs (ELISA); assay type: cell-based; settings: 24 h
[3] = test system: T cells; experiment: Cytokine mRNA expression in T cells, real time RT-PCR; assay type: cell-based, human; settings: normalized with GAPDH
Protocol: (§1) T cell isolation and culture. Peripheral blood mononuclear cells (PBMC) were obtained by Ficoll-Hypaque density centrifugation. T cells were purified from PBMC using human T cell enrichment columns (R&D systems) via high affinity negative selection according to manufacturer's instructions. […] T cells were stimulated with plate bound anti-human CD3 antibody (BD Pharmingen, San Diego, Calif.) (200 ng/ml) at a concentration of 3×10^6 cells/ml in AIM-V serum free media for 24 h.
(§2) Real Time RT-PCR analysis. RT-PCR was performed as described previously (Nagasawa et al. Adv. Immunol. 71: 211-228 (1999)). Total RNA (2 μg) and oligo-dT primers were used to synthesize single-stranded cDNA using the Reverse Transcription kit (Life Technologies, Gaithersburg, Md.) according to manufacturer's instructions. The PCR was set up using SYBR green Master Mix (Applied Biosystems), 1 μl cDNA and gene-specific primers at a final concentration of 0.3 μM. Thermal cycling was carried out on the Applied Biosystems GeneAmp 7700 Sequence Detector and SYBR green dye intensity was analyzed using GeneAmp 7700 SDS software. […] Mouse IL-1β, IL-6, TNF-α, GAPDH and human GHS-R1a primers were designed using ABI prism software (PE Applied Biosystems). The PCR product of the GHS-R 1a amplification was quantitated using the Agilent 2100 Bioanalyzer (Agilent Technologies, Palo Alto, Calif.). Primers are available upon request. No PCR products were generated from genomic versus cDNA template.

[4] = test system: LPS-induced endotoxemia; experiment: LPS-induced endotoxemia in mice: tissue cytokine mRNA, real time PCR; assay type: in vivo, BALB/c mice; settings: for TNF-α expression: 24 h post LPS
Protocol: (§3) Mice. Male 20-22 g BALB/c mice (Taconic, Germantown, N.Y.), 8-10 weeks old, were used. The guidelines proposed by the committee for the Care of Laboratory Animal Resources Commission of Life Sciences-National Research Council were followed to minimize animal pain and distress. Each animal received rodent laboratory chow and ad libitum water.
(§4) LPS-induced inflammation. Endotoxin shock in mice was induced by intraperitoneal (i.p.) injection with 10 μg of LPS (E. coli serotype 055:B5, Sigma) as described previously (Bochkov et al. 2002. Nature. 419: 77-8). […] Mice were sacrificed 4 h and 24 h post-LPS challenge and visceral organs and serum were collected.
as §2

[5] = test system: LPS-induced endotoxemia; experiment: LPS-induced endotoxemia in mice: serum cytokine levels (Bio-Plex); assay type: in vivo, BALB/c mice
Protocol: as §3, §4
(§5) Cytokine estimation. IL-1β, IL-6 and TNF-α were estimated in T cell supernatants after 24 h using commercial ELISA kits according to manufacturer's instructions (Biosource, Camarillo, Calif.). Serum cytokines were analyzed using Bio-Plex Mouse Cytokine 18-Plex Panel according to manufacturer's instructions (Biorad, Hercules, Calif.).

[6] = test system: human T cells; experiment: Actin polymerization in human T cells (phalloidin staining); assay type: cell-based; settings: ghrelin 100 ng/ml, 20 min
Source text: Actin Polymerization. […] Thereafter cells were fixed and permeabilized in 2% Paraformaldehyde plus 0.1% Triton-X 100 and stained for actin using phalloidin AF-594 and nucleus by DAPI.

[7] = test system: LPS-induced anorexia; experiment: Food intake in LPS-challenged and control mice; assay type: in vivo, BALB/c mice
Protocol: as §3, §4

[8] = test system: primary human T cells; experiment: Cytokine production by anti-CD3-stimulated primary human T cells (ELISA); assay type: cell-based; settings: immobilized anti-CD3 antibody, 24 h
Protocol: as §1, §5

[9] = test system: primary human T cells; experiment: Leptin-induced cytokine protein and mRNA expression in anti-CD3-activated human T cells; assay type: cell-based; settings: 24 h
Protocol: as §1, §5, §2

[10] = test system: T cells or PBMCs; experiment: Cytolytic effects: lactate dehydrogenase and trypan blue cell counts; assay type: cell-based, human; settings: control vs hormone-treated T cells or PBMCs
Source text: The classical pro-inflammatory cytokines, IL-1a, IL-1β, IL-6 and TNF-α are known to play a critical role in development of anorexia-cachexia syndrome (Inui et al. 1999. Cancer Res. 59: 4493-4501). The anorexia-cachexia syndrome is a complex multifactorial metabolic condition associated with altered protein, carbohydrate and fat metabolism resulting in anorexia, negative energy balance, weight loss and muscle wasting (Kotler et al. 2000. Ann. Internal Med. 133: 622-634).

[11] = test system: human T cells; experiment: T cell proliferation and IL-2 levels after anti-CD3 mAb and ghrelin; assay type: cell-based; settings: anti-CD3 mAb and ghrelin treatment
[12] = test system: human T cells; experiment: Effect of leptin on ghrelin and GHS-R expression in human T cells; assay type: cell-based
Protocol: as §1
as §2, with “No PCR products were generated from genomic versus cDNA template.” left out

[13] = spleen and liver, 4 and 24 h post LPS, ghrelin 5 mg/kg i.p.
[14] = ghrelin alone vs sham control mice
[15] = PHA 1 μg/ml, ghrelin 1 to 100 ng/ml
[16] = leptin alone, primary human T cells and PBMCs

T1 sequence (Q92847 whole entry): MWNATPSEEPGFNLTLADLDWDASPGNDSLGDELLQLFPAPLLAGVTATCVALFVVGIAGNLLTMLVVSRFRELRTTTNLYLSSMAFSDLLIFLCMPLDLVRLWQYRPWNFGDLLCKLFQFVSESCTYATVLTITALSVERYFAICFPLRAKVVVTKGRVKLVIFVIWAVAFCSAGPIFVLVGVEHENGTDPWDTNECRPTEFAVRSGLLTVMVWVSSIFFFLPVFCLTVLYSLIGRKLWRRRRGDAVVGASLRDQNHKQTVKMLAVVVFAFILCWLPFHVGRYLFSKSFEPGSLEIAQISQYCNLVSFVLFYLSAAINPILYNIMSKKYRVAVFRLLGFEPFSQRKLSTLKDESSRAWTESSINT

Gly-Ser-Ser(n-Octanoyl)-Phe-Leu-Ser-Pro-Glu-His-Gln-Arg-Val-Gln-Gln-Arg-Lys-Glu-Ser-NH2 (GSS(Octanoyl)FLSPEHQRVQQRKES-NH2; N-terminus assumed; SMILES CCCCCCCC(=O)OC[C@H](NC(=O)[C@H](CO)NC(=O)CN)C(=O)N[C@@H](Cc1ccccc1)C(=O)N[C@@H](CC(C)C)C(=O)N[C@@H](CO)C(=O)N1CCC[C@H]1C(=O)N[C@@H](CCC(=O)O)C(=O)N[C@@H](Cc1c[nH]cn1)C(=O)N[C@@H](CCC(N)=O)C(=O)N[C@@H](CCCNC(=N)N)C(=O)N[C@H](C(=O)N[C@@H](CCC(N)=O)C(=O)N[C@@H](CCC(N)=O)C(=O)N[C@@H](CCCNC(=N)N)C(=O)N[C@@H](CCCCN)C(=O)N[C@@H](CCC(=O)O)C(=O)N[C@@H](CO)C(N)=O)C(C)C) [ghrelin 1-18 fragment]
rise in intracellular [Ca^2+] ([1]; cultured human T cells, ghrelin 100 ng/ml): significant and specific rise in intracellular [Ca^2+]

[D-Lys-3]-GHRP-6 [reference compound]
effect on ghrelin-mediated inhibition of cytokine production ([2]; antagonist 10^−4 M added with ghrelin, PHA-stimulated PBMCs): attenuated this ghrelin-mediated inhibition
effect on ghrelin-mediated intracellular calcium release ([1]; pretreatment with antagonist 10^−4 M, then ghrelin 100 ng/ml): markedly attenuated

ghrelin
IL-1β mRNA expression [3]: significantly inhibits
IL-6 mRNA expression [3]: significantly inhibits
TNF-α mRNA expression [3]: significantly inhibits
TNF-α expression ([4]; liver): inhibited
IL-1β mRNA expression [4, 13]: attenuation
IL-6 mRNA expression [4, 13]: attenuation
TNF-α mRNA ([4]; spleen and liver, 4 h post LPS): Attenuation
TNF-α expression ([4]; spleen): remained unchanged
serum IL-1β ([5]; 24 h after LPS challenge): significant inhibition
serum IL-6 ([5]; 24 h after LPS challenge): significant inhibition
serum ILα levels ([5]; 24 h post LPS and ghrelin treatment): inhibited
Serum IL-1α level [5, 14]: significantly inhibited
Serum IL-1β level [5, 14]: significantly inhibited
circulating IL-6 level ([5]; serum, 4 h): but not in IL-1β (FIG. 7a) or IL-6
circulating TNF-α level ([5]; serum, 4 h): significant change
TGF-β production ([2]; PHA 1 μg/ml, any concentration tested): failed to alter TGF-β production
IL-1β production [2, 15]: significant inhibition
IL-6 production [2, 15]: significant inhibition
TNF-α production [2, 15]: significant inhibition
actin polymerization / polarization of F-actin [6]: marked increase in broad membrane structures characteristic of lamellipodia with typical polarization of F-actin
LPS-induced anorexia (food intake) ([7]; 24 h post ghrelin and LPS, prior ghrelin treatment): significant attenuation of this LPS-induced anorexia
increase in food intake compared to sham controls ([7]; ghrelin-treated control mice in the absence of LPS challenge, 24 h): 30%
IL-1β production [8]: significant dose-dependent inhibition
IL-6 production [8]: significant dose-dependent inhibition
leptin-induced cytokine protein and gene expression (IL-1β, IL-6, TNF-α) ([9]; ghrelin co-incubated with leptin 100 nM, T cells): dose-dependent inhibition
cytolytic effects (LDH, cell counts by trypan blue exclusion) [10]: failed to demonstrate any significant difference between control and hormone-treated cells
IL-2 secretion [11]: no significant effects
T cell proliferation [11]: no significant effects

leptin: a member of gp130 family of cytokines, regarded as a pro-inflammatory inducer
ghrelin protein production or gene expression ([12]; anti-CD3-stimulated T cells, 24 h): failed to exert any significant effects
GHS-R mRNA expression ([12]; human T cells, real time RT-PCR): significant increase
IL-1β protein and mRNA expression [9, 16]: significant dose-dependent increase
IL-6 protein and mRNA expression [9, 16]: significant dose-dependent increase
TNF-α protein and mRNA expression [9, 16]: significant dose-dependent increase
